Data on 32 molecules can be found in patent US8969565B2, “Imidazo[1,2-b]pyridazine-based compounds, compositions comprising them, and methods of their use” (Lexicon Pharmaceuticals, Inc., priority 2012, dated 2015).

The target in test [1] is T1, AAK1 (Homo sapiens, UniProt Q2M2I8).
T1 construct: HA; expressed in transfected cells; host or cells: HEK293F
As to the kind of experiment: P81 filter plate assay. Format: biochemical. To be noted: full-length human AAK1, Mu2 substrate.

In test [2] the target is T1, AAK1. As to the kind of experiment: HEK281 cell-based assay (phospho-mu2 Western blot in transfected HEK293F cells). To be noted: 3 hours incubation, read-out: CBA IC50. The gist of the method:
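HEK293F cells co-transfected with full-length human AAK1/HA and Flag/AP2M1 were treated next day with 5 compound concentrations (3-fold dilutions) in DMEM+0.5% FBS for 3 hours at 37° C. Lysates were Western blotted for phospho-mu2, with total mu2 detected by anti-Flag.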

T1 sequence (Q2M2I8 1-863 isoform Q2M2I8-2): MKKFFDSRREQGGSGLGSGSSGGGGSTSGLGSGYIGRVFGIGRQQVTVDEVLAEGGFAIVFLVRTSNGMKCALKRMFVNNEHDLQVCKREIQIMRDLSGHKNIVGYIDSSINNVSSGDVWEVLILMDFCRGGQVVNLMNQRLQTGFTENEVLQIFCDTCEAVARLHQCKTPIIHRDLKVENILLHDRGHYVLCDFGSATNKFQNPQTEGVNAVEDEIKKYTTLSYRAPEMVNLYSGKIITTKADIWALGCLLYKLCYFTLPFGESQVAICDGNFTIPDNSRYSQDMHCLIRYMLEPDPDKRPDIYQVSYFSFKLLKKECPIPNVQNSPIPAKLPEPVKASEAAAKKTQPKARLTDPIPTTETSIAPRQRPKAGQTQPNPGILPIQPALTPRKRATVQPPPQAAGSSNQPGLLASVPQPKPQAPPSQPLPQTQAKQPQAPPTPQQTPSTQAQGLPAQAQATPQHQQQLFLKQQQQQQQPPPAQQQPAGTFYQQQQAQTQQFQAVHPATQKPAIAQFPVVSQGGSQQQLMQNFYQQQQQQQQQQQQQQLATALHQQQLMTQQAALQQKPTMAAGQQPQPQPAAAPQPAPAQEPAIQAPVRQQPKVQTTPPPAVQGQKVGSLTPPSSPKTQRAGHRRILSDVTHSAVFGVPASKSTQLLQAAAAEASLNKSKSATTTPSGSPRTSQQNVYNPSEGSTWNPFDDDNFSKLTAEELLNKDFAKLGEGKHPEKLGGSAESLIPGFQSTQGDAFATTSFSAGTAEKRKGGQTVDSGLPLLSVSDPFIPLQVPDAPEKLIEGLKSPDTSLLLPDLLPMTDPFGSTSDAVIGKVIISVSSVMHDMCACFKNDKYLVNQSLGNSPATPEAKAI

One may read the IC50 as the midpoint of a concentration-inhibition curve. `[2H]C([2H])([2H])Oc1ncccc1-c1cnc2ccc(N3CC[C@H](N(C)C(=O)OC(C)C)C3)nn12` [(S)-isopropyl (1-(3-(2-(tri-deuteromethoxy)pyridin-3-yl)imidazo[1,2-b]pyridazin-6-yl)pyrrolidin-3-yl)(methyl)carbamate]: the half-inhibitory concentration (IC50) in test [1] and in test [2] was no more than 10 nM each time.
With `COc1ncc(C)cc1-c1cnc2ccc(N3CC[C@H](N(C)C(=O)OC(C)C)C3)nn12` [(S)-isopropyl (1-(3-(2-methoxy-5-methylpyridin-3-yl)imidazo[1,2-b]pyridazin-6-yl)pyrrolidin-3-yl)(methyl)carbamate], the 50% inhibitory concentration (IC50) is no more than 10 nM in test [1] and no more than 100 nM in test [2].
In the same order, the values of `COc1cc(-c2cnc3ccc(N4CC[C@H](N(C)C(=O)OC(C)C)C4)nn23)c(OC)nn1` [(S)-isopropyl (1-(3-(3,6-dimethoxypyridazin-4-yl)imidazo[1,2-b]pyridazin-6-yl)pyrrolidin-3-yl)(methyl)carbamate] are no more than 10 nM and no more than 100 nM.
Taken in the same sequence, the figures for `CC(C)OC(=O)N(C)[C@H]1CCN(c2ccc3ncc(-c4ccc(CN)cc4)n3n2)C1` [(S)-isopropyl (1-(3-(4-(aminomethyl)phenyl)imidazo[1,2-b]pyridazin-6-yl)pyrrolidin-3-yl)(methyl)carbamate] were no more than 10 nM and no more than 10 nM.
For `COc1ccc(F)cc1-c1cnc2ccc(N3CC[C@H](N(C)C(=O)OC(C)C)C3)nn12` [(S)-isopropyl (1-(3-(5-fluoro-2-methoxyphenyl)imidazo[1,2-b]pyridazin-6-yl)pyrrolidin-3-yl)(methyl)carbamate], the IC50 in test [1] and in test [2] was no more than 10 nM each time.
With `COc1ncc(F)cc1-c1cnc2ccc(N3CC[C@H](N(C)C(=O)OC(C)C)C3)nn12` [(S)-isopropyl (1-(3-(5-fluoro-2-methoxypyridin-3-yl)imidazo[1,2-b]pyridazin-6-yl)pyrrolidin-3-yl)(methyl)carbamate], the half-inhibitory concentration (IC50) was no more than 10 nM in test [1] and no more than 100 nM in test [2].
Taken in the same sequence, the figures for `CC(C)OC(=O)N(C)[C@H]1CCN(c2ccc3ncc(-c4cccnc4)n3n2)C1` [(S)-isopropyl methyl(1-(3-(pyridin-3-yl)imidazo[1,2-b]pyridazin-6-yl)pyrrolidin-3-yl)carbamate] were no more than 10 nM and no more than 100 nM.
In the same order, the values of `COc1nc(C)ccc1-c1cnc2ccc(N3CC[C@H](N(C)C(=O)OC(C)C)C3)nn12` [(S)-isopropyl(1-(3-(2-methoxy-6-methylpyridin-3-yl)imidazo[1,2-b]pyridazin-6-yl)pyrrolidin-3-yl)(methyl)carbamate] are no more than 10 nM and no more than 10 nM.
In the same order, the values of `CC(C)(C)COC(=O)N1CCC[C@H]1CNc1ccc2ncc(-c3ccc(CN)cc3)n2n1` [(S)-neopentyl 2-(((3-(4-(aminomethyl)phenyl)imidazo[1,2-b]pyridazin-6-yl)amino)methyl)pyrrolidine-1-carboxylate] are no more than 10 nM and no more than 10 nM.
In the case of `CC(C)(C)COC(=O)N1CCC[C@H]1CNc1ccc2ncc(-c3ccncc3)n2n1` [(S)-neopentyl 2-(((3-(pyridin-4-yl)imidazo[1,2-b]pyridazin-6-yl)amino)methyl)pyrrolidine-1-carboxylate], the IC50 in test [1] was no more than 10 nM; in test [2], no more than 100 nM.
Take `CC(C)(C)OC(=O)N1CCC[C@H]1CNc1ccc2ncc(-c3ccc(CN)cc3)n2n1` [(S)-tert-butyl 2-(((3-(4-(aminomethyl)phenyl)imidazo[1,2-b]pyridazin-6-yl)amino)methyl)pyrrolidine-1-carboxylate]: the half-maximal inhibitory concentration (IC50) in test [1] and in test [2] was no more than 10 nM each time.
Consider `CC(C)(C)OC(=O)N1CCC[C@H]1CNc1ccc2ncc(-c3ccc(C(N)=O)cc3)n2n1` [(S)-tert-butyl 2-(((3-(4-carbamoylphenyl)imidazo[1,2-b]pyridazin-6-yl)amino)methyl)pyrrolidine-1-carboxylate], for which the concentration for half-maximal inhibition (IC50) in test [1] and in test [2] was no more than 10 nM each time.
On to `CNC(=O)c1cnc2ccc(NC[C@@H]3CCCN3C(=O)OC(C)(C)C)nn12` [(S)-tert-butyl 2-(((3-(methylcarbamoyl)imidazo[1,2-b]pyridazin-6-yl)amino)methyl)pyrrolidine-1-carboxylate], for which the half-maximal inhibitory concentration (IC50) in test [1] is no more than 10 nM; in test [2] it was no more than 100 nM.
Turning to `CC(C)(C)OC(=O)N1CC[C@H]1CNc1ccc2ncc(Br)n2n1` [(S)-tert-butyl 2-(((3-bromoimidazo[1,2-b]pyridazin-6-yl)amino)methyl)azetidine-1-carboxylate], the IC50 in test [1] was no more than 10 nM; in test [2], no more than 100 nM.
In the case of `Cc1cnc2ccc(NC[C@@H]3CCCN3C(=O)OC(C)(C)C)nn12` [(S)-tert-butyl 2-(((3-methylimidazo[1,2-b]pyridazin-6-yl)amino)methyl)pyrrolidine-1-carboxylate], the figures for the IC50 in test [1] and in test [2] were no more than 10 nM and no more than 100 nM, respectively.
Taken in the same sequence, the figures for `CC(C)(C)OC(=O)N1CCC[C@H]1CNc1ccc2ncc(-c3ccccc3)n2n1` [(S)-tert-butyl 2-(((3-phenylimidazo[1,2-b]pyridazin-6-yl)amino)methyl)pyrrolidine-1-carboxylate] were no more than 10 nM and no more than 10 nM.
For the molecule `COc1ccccc1-c1cnc2ccc(N3CC[C@H](N(C)C(=O)OC(C)(C)C)C3)nn12` [(S)-tert-butyl (1-(3-(2-methoxyphenyl)imidazo[1,2-b]pyridazin-6-yl)pyrrolidin-3-yl)(methyl)carbamate], the figures for the half-maximal inhibitory concentration (IC50) in test [1] and in test [2] were no more than 10 nM and no more than 100 nM, respectively.
Taken in the same sequence, the figures for `CN(C(=O)OC(C)(C)C)[C@H]1CCN(c2ccc3ncc(-c4ccncc4)n3n2)C1` [(S)-tert-butyl methyl(1-(3-(pyridin-4-yl)imidazo[1,2-b]pyridazin-6-yl)pyrrolidin-3-yl)carbamate] were no more than 10 nM and no more than 1000 nM.
In the same order, the values of `C=COC(=O)N1CCC[C@H]1CNc1ccc2ncc(-c3ccccc3OC)n2n1` [(S)-vinyl 2-(((3-(2-methoxyphenyl)imidazo[1,2-b]pyridazin-6-yl)amino)methyl)pyrrolidine-1-carboxylate] are no more than 10 nM and no more than 100 nM.
With `COc1ccccc1-c1cnc2ccc(N3CC[C@H](N(C)C(=O)N4CCCC4)C3)nn12` [(S)—N-(1-(3-(2-methoxyphenyl)imidazo[1,2-b]pyridazin-6-yl)pyrrolidin-3-yl)-N-methylpyrrolidine-1-carboxamide], the IC50 was no more than 10 nM in test [1] and no more than 100 nM in test [2].
Taken in the same sequence, the figures for `COc1ncccc1-c1cnc2ccc(N3CC[C@H](N(C)C(=O)N4CCCC4)C3)nn12` [(S)—N-(1-(3-(2-methoxypyridin-3-yl)imidazo[1,2-b]pyridazin-6-yl)pyrrolidin-3-yl)-N-methylpyrrolidine-1-carboxamide] were no more than 10 nM and no more than 100 nM.
On to `CN(C)C(=O)c1cccc(-c2cnc3ccc(N4CCN(C(=O)N5CCCC5)CC4)nn23)c1` [N,N-dimethyl-3-(6-(4-(pyrrolidine-1-carbonyl)piperazin-1-yl)imidazo[1,2-b]pyridazin-3-yl)benzamide], for which the figures for the IC50 in test [1] and in test [2] were no more than 10 nM and no more than 100 nM, respectively.
Consider `c1cc(-c2cnc3ccc(NCCOC4CCCC4)nn23)n[nH]1` [N-(2-(cyclopentyloxy)ethyl)-3-(1H-pyrazol-3-yl)imidazo[1,2-b]pyridazin-6-amine], for which the half-maximal inhibitory concentration (IC50) in test [1] is no more than 100 nM; in test [2], no more than 1000 nM.
As for `Fc1ncccc1-c1cnc2ccc(NCCOC3CCCC3)nn12` [N-(2-(cyclopentyloxy)ethyl)-3-(2-fluoropyridin-3-yl)imidazo[1,2-b]pyridazin-6-amine], the figures for the half-maximal inhibitory concentration (IC50) in test [1] and in test [2] were no more than 10 nM and no more than 1000 nM, respectively.
Regarding `COc1cncc(-c2cnc3ccc(NCCOC4CCCC4)nn23)c1` [N-(2-(cyclopentyloxy)ethyl)-3-(5-methoxypyridin-3-yl)imidazo[1,2-b]pyridazin-6-amine], the concentration for half-maximal inhibition (IC50) in test [1] was no more than 10 nM; in test [2] it was no more than 100 nM.
For the molecule `c1ccc(-c2cnc3ccc(NCCOC4CCCC4)nn23)nc1` [N-(2-(cyclopentyloxy)ethyl)-3-(pyridin-2-yl)imidazo[1,2-b]pyridazin-6-amine], the IC50 was no more than 10 nM in test [1] and no more than 100 nM in test [2].
In the same order, the values of `CC(=O)Nc1cccc(-c2cnc3ccc(NCCOC4CCCC4)nn23)c1` [N-(3-(6-((2-(cyclopentyloxy)ethyl)amino)imidazo[1,2-b]pyridazin-3-yl)phenyl)acetamide] are no more than 100 nM and no more than 100 nM.
In the same order, the values of `CC(C)(C)NC(=O)N1CCN(c2ccc3ncc(-c4ccccc4)n3n2)CC1` [N-(tert-Butyl)-4-(3-phenylimidazo[1,2-b]pyridazin-6-yl)piperazine-1-carboxamide] are no more than 10 nM and no more than 100 nM.
Taken in the same sequence, the figures for `COc1ccccc1-c1cnc2ccc(N3CCN(C(=O)N(C)C(C)C)CC3)nn12` [N-isopropyl-4-(3-(2-methoxyphenyl)imidazo[1,2-b]pyridazin-6-yl)-N-methylpiperazine-1-carboxamide] were no more than 10 nM and no more than 100 nM.
Turning to `COc1ccccc1-c1cnc2ccc(N3CCN(C(=O)NC(C)C)CC3)nn12` [N-isopropyl-4-(3-(2-methoxyphenyl)imidazo[1,2-b]pyridazin-6-yl)piperazine-1-carboxamide], the IC50 in test [1] is no more than 10 nM; in test [2] it was no more than 1000 nM.
In the same order, the values of `CC(C)SC(=O)N1CCN(c2ccc3ncc(-c4ccccc4)n3n2)CC1` [S-Isopropyl 4-(3-phenylimidazo[1,2-b]pyridazin-6-yl)piperazine-1-carbothioate] are no more than 10 nM and no more than 1000 nM.
Consider `O=C(N1CCCC1)N1CCN(c2ccc3ncc(-c4ccccn4)n3n2)CC1` [[4-(3-Pyridin-2-yl-imidazo[1,2-b]pyridazin-6-yl)-piperazin-1-yl]-pyrrolidin-1-yl-methanone], for which the figures for the half-inhibitory concentration (IC50) in test [1] and in test [2] were no more than 10 nM and no more than 100 nM, respectively.
